{"source": "patent US8685720B2", "about": "“Engineered cellular pathways for programmed autoregulation of differentiation” (The Trustees of Princeton University, priority 2006, dated 2014)", "test_system": "mammalian version of LuxR in 293FT cells", "experiment": "30C6HSL detection by mammalian receiver cells expressing chimeric LuxR-activator", "type": "cell-based", "conditions": "P65-LuxR fusion, synthetic lux promoter, exogenous 30C6HSL", "text": "FIG. 2: (a) 30C6HSL synthesis by mammalian 293FT cells. Supernatant from the cells' growth media was collected and filter sterilized. Histograms show the fluorescence intensities of bacterial cells sensitive to 30C6HSL grown in the filtered supernatant, expressing green fluorescent protein due to 30C6HSL from the mammalian cells. (b) 30C6HSL detection by mammalian receiver cells. […] (c) Controlled stem cell differentiation with genetically inducible systems. Three different lentiviral genetic constructs were built, enabling exogenous chemical induction into myoblasts, adipocytes, or maintenance of stem cell properties. […] In addition, the marker protein for myoblasts, dystrophin, was expressed from these cells (data not shown). […] In a separate experiment, induced expression of Nanog supplanted the need for a growth factor usually required to maintain the overall character of mES cells.\nThe 30C6HSL detection pathway consists of a signal transducer that binds 30C6HSL and activates transcription of genes controlled by a synthetic lux promoter. The 30C6HSL signal transducer is a chimeric LuxR-activator protein created by the fusion of a P65 mammalian activation domain to a codon optimized mammalian version of a bacterial LuxR.", "note": "Entries after “also recorded” stand apart in the source; their conditions may differ."}
{"smiles": "CCCC(=O)CC(=O)N[C@H]1CCOC1=O", "note": "[30C6HSL]", "values": [{"measurement": "response (EGFP expression) to the addition of 30C6HSL", "value": "strong response; also recorded: express EGFP only upon induction with exogenous 30C6HSL"}]}
